Reference: US20180256538A1, “METHOD FOR IMPROVING MITOPHAGY IN SUBJECTS” (Amazentis SA, priority 2017, published 2018)
“Also recorded” adds a separate entry of the source.

Key:
[1] = tested on: plasma acylcarnitines and other metabolites; test: Plasma metabolomics (LC/MS/MS), day 28 vs day -1; assay type: in vivo, human; details: 500 mg/day for 28 days
Method: Blood handling procedures: at each time point indicated in the table, a 6 mL blood sample was drawn into K2-EDTA coated tube. The blood samples were gently inverted a few times for complete mixing with the anticoagulant. The exact time of sample collection was recorded on the eCRF. Within 30 minutes following blood collection, each blood sample was centrifuged at 1500 g for 10 minutes at 4° C. 30 minutes after the centrifugation, the top layer of human plasma was transferred into 2 pre-labelled polypropylene tubes, containing approximately 1500 μL of plasma. Blood cells were not transferred. All sample tubes were clearly and appropriately labelled. Tubes were capped immediately from each time point and the plasma was be frozen in an upright position at approximately −80° C. for storage. Measurement of metabolites: Samples were extracted and split into equal parts for analysis on the LC/MS/MS and Polar LC platforms. Proprietary software was used to match ions to an in-house library of standards for metabolite identification and for metabolite quantitation by peak area integration. A total of 781 metabolites were quantified. Metabolomics is the study of known measurable metabolites in a sample. […] The technique made use of HPLC-MS-MS analysis of plasma samples of subjects administered either placebo or urolithin A to characterise metabolites. 781 plasma metabolites which cover all of the biochemical processes of the body were investigated. […] The grey line in FIG. 8 corresponds to a fold change of 1, i.e. absence of effect. *P<0.05 correspond to a significant effect from D-1 (pre-dose) to D28, calculated after a repeated measures ANOVA. N=9 per group. Values represent the arithmetic mean of the fold changes.

[2] = Steady state plasma levels of total Urolithin A (parent + glucuronide and sulfate) over 28 days of dosing; assay type: in vivo, human; details: 500 mg/day oral for 28 days, total Urolithin A in plasma
Method: A double-blind, randomized, placebo controlled clinical trial was conducted in healthy elderly to establish the steady state levels of Urolithin A in plasma. Elderly subjects (61-82 years) (n=9), participated in each group of dosing. The subjects met all the inclusion and exclusion criteria of the study and signed informed consent. The subjects were overnight fasted and the plasma was collected in the morning before breakfast to assess steady state levels. Subjects were given a dose of Urolithin or placebo each morning for the 28 day trial, The urolithin A was given as softgel capsules containing 250 mg of Urolithin A in each capsule. Plasma samples were collected for assessment of Urolithin A steady state concentrations in the 4-week Urolithin A study at the following time points (Day 0, Day 7, Day 14, Day 28, Day 29, Day 31, and Day 32) were measured On day 28 the subjects were admitted to a Phase I clinical trial unit and the kinetics of Urolithin A absorption, and elimination following multiple 4-week dosing were followed until 96 hours following the last dosing on Day 28. Plasma was collected at the following time-points post last dosing with Urolithin A on Day 28: pre-dose, 1 hr, 2 hr, 4 hr, 6 hr, 8 hr, 12 hr, 24 hr, 72 hr and 96 hr. […] The exact time of sample collection was recorded on the eCRF (electronic case report from). […]

[3] = clinical; details: human, in vivo, po
Method: Part B: The study was a double-blinded, randomized, multiple ascending dose study in 36 healthy elderly male and female volunteers. Each subject was randomised to receive study product or placebo for 28 days.
Part B: Repeated oral dose administration from day 1 to day 28 according to the randomization. The administration took place around 8:00 am with around 200 mL tap water, in a sitting position, and under fasting conditions.
After multiple dosing: Cmax, tmax, AUC0-24 h, t1/2 From the plasma concentration-time data, the following pharmacokinetic parameters will be determined, as data permit using non-compartmental methods: maximum observed plasma concentration (Cmax(ng/mL), time at which maximum observed plasma concentration (tmax) (h), area under the plasma concentration-time curve AUC(0-24 h) (ng/mL*h) and AUC0-∞) (ng/mL*h), and apparent terminal phase half-life (t1/2) (h).
(§1) Blood sampling was performed for urolithin A concentration measurements at the exact timepoints with an authorised time window described in the table below:
(§2) At each time point indicated in the table, a 6 mL blood sample was drawn into K2-EDTA coated tube. The blood samples were gently inverted a few times for complete mixing with the anticoagulant. The exact time of sample collection was recorded on the eCRF. Within 30 minutes following blood collection, each blood sample was centrifuged at 1500 g for 10 minutes at 4° C.
(§3) From the plasma concentration-time data, the following pharmacokinetic parameters were determined, as data permit using non-compartmental methods: maximum observed plasma concentration (Cmax), time at which maximum observed plasma concentration (tmax), area under the plasma concentration-time curve AUC(0-24 h) and AUC(0-∞), and apparent terminal phase half-life (t1/2).

[4] = clinical; details: human, in vivo, po; for AUC(0-t) / Cmax: both sexes
Method: Part A: The study was a double-blind, randomized, single ascending doses, study in 24 healthy elderly male and female volunteers. Each subject was randomized for two subsequent doses in three cohorts.
Part A: Single oral dose administration on D1 of each period according to the randomisation. The administration took place around 8:00 am with around 200 mL tap water, in sitting position, and under fasting conditions.
After single dosing: Cmax, tmax, AUC0-t, AUC0-∞, t1/2
as §1, §2, §3
FIG. 1 summarises certain plasma pharmacokinetic parameters of urolithin A following single dose oral administration at 250 mg, 500 mg, and 2000 mg urolithin A dosages.

[5] = tested on: myostatin/follistatin ratio; test: ELISA of plasma muscle function markers, day 28 vs day -1; assay type: in vivo, human; details: 500 mg/day for 28 days, day 28 vs day -1, compared with placebo
Method: Blood handling procedures: at each time point indicated in the table, a 6 mL blood sample was drawn into K2-EDTA coated tube. The blood samples were gently inverted a few times for complete mixing with the anticoagulant. The exact time of sample collection was recorded on the eCRF. Within 30 minutes following blood collection, each blood sample was centrifuged at 1500 g for 10 minutes at 4° C. 30 minutes after the centrifugation, the top layer of human plasma was transferred into 2 pre-labelled polypropylene tubes, containing approximately 1500 μL of plasma. Blood cells were not transferred. All sample tubes were clearly and appropriately labelled. Tubes were capped immediately from each time point and the plasma was be frozen in an upright position at approximately −80° C. for storage. Measurement of markers of muscle function: Markers of muscle function, including myostatin and follistatin, were measured using an ELISA based method. Every sample was analysed in technical duplicates together with a standard curve made with each isolated analyte. The amount of each marker was expressed as an absolute concentration in plasma (pg to μg/ml of plasma, depending on the analyte). Analysis of the levels of muscle biomarkers myostatin and follistatin, which are found in plasma of human subjects, was carried out using ELISA.

[6] = tested on: mitochondrial gene sets in vastus lateralis muscle; test: Microarray / Gene Set Enrichment Analysis of gene expression in skeletal muscle biopsies after 28 days dosing; assay type: in vivo, human; details: 500 mg/day for 28 days vs placebo group
Method: Muscle biopsies were collected before the meal from the vastus lateralis muscle of the right leg in order to perform ex vivo measurements.
Muscle biopsies were collected on Day −1 and Day 28 at pre-dose under fasted state using the Bergstrom biopsy needle technique. The minimal amount of each muscle tissue sample was approximately […]. One third of the tissue was used for gene expression (≈50 mg), and was further divided into two equal portions: one portion for RNA analysis (≈25 mg) and one portion for DNA analysis (≈25 mg), both in a Safe-lock Tubes 2.0 ml, Eppendorf (part no. 0030.120.094). Muscle tissue was snap frozen using liquid nitrogen immediately after collection and further, long term storage will be in a −80° C. freezer. The mRNA was analysed by qPCR. Quantification of mtDNA over nuclear DNA provided another measure of mitochondrial abundance. The shipment was done in dry ice by specialized carrier. Temperatures were monitored using data logger during all transport.
Gene expression on available remaining muscle tissues samples was performed by microarrays.
Microarray analysis was carried out on skeletal muscle biopsies of human subjects administered urolithin A or placebo daily for 28 days. Approximately 30,000 gene transcripts were quantified by microarray in muscle biopsies and compared (day 28 vs. day −1). Gene Set Enrichment Analysis was conducted on 6166 gene sets. […]

- steady state levels after end of the 4-week administration (Day 31 and Day 32) [2]: gradually declined
- AUC ([3]; both sexes, 500 mg): 0.0107 µg·h/mL
- Cmax ([3]; both sexes, 500 mg): 1.25 ng/mL
- pharmacokinetic profile over the 28 day period (plasma concentrations 24 h after previous dose, days 7, 14, 28, 29) [3]: stable
- AUC(0-t) ([4]; 500 mg): 0.0133 µg·h/mL
- Cmax ([4]; 500 mg): 1.24 ng/mL
- AUC(0-t) ([4]; 2000 mg): 0.0124 µg·h/mL
- Cmax ([4]; 2000 mg): 1.04 ng/mL
SMILES: O=c1oc2cc(O)ccc2c2ccc(O)cc12 [Urolithin A]
- plasma carnitine levels [1]: did not change
- change in plasma acylcarnitines, short chain up to long chain (fold change) ([1]; day -1 to day 28, N=9): overall decrease; also recorded: significant impact
- change in plasma pyruvate, lactate, acetoacetate, 3-hydroxyoctanoate and glucose (fold change) ([1]; day -1 to day 28, N=9): no significant change
- dose-normalised plasma Cmax and AUC0-36 h (plasma levels per mg dosed) [4]: higher plasma levels of urolithin A were observed per mg dosed
- change in plasma myostatin/follistatin ratio [5]: significantly lower; also recorded: significant decrease
- enrichment in GO_MITOCHONDRION genes expression [6]: significant
